Experimental data reported in patent EP3227262B1, “SULFIDE ALKYL AND PYRIDYL REVERSE SULFONAMIDE COMPOUNDS FOR HBV TREATMENT” (Novira Therapeutics Inc., priority 2014, dated 2016).

Experiments:
[1] = tested on: HBV; experiment: Inhibition of HBV replication dot-blot assay in HBV-producing hepatoma cell line; format: cell-based; settings: Hepatitis B virus, 144 h; activity in Dot-Blot assay; HepG2-2.2.15 cells; reduction in HBV DNA levels, six days
Method: Compounds active in the HBV assembly assay are tested for their activity and toxicity in cellular assay. In the first anti-viral assay, the ability of compounds to inhibit HBV replication in an HBV-producing hepatoma cell line using the dot-blot method is evaluated.
(§1) Briefly, confluent monolayers of HepG2-2.2.15 cells are incubated with complete medium containing various concentrations of a test compound. Three days later, the culture medium is replaced with fresh medium containing the appropriately diluted test compound. Six days following the initial administration of the test compound, the cell culture supernatant is collected, and cell lysis is performed. The samples are applied onto Nylos membranes and DNA is immobilized to the membrane by UV cross-linking. After pre-hybridization, the HBV probe is added and the hybridization is performed overnight. The membranes are exposed to the KODAK films; antiviral activity is calculated from the reduction in HBV DNA levels (EC50). The EC50 for antiviral activity is calculated from the dose response curves of active compounds. Assay performance over time is monitored by the use of the standard positive control compounds ETV, BAY 41-4109, and HAP-1.
Selected compounds are tested for their activity and toxicity in cellular assay. In the first anti-viral assay, the ability of compounds to inhibit HBV replication in an HBV-producing hepatoma cell line using the dot-blot method is evaluated.
as §1, with “Confluent monolayers” for “Briefly, confluent monolayers”, “lysis was” for “lysis is”

[2] = tested on: HBV; experiment: HBV replication inhibition assay (encapsidated HBV DNA in supernatant, bDNA QuantiGene); format: cell-based; settings: Hepatitis B virus, 144 h, HepG2.2.15 cells, supernatant at day 6, read-out: Extra HBV DNA

Row | SMILES | EC50 [1] [µM] | EC50 [2] [µM]
1 | O=C(Nc1cc(F)c(F)c(F)c1)c1ccc(F)c(SC2CCC(O)CC2)c1 (mixture of isomers) [Compound 10, (cis/trans)-4-Fluoro-3-((4-hydroxycyclohexyl)thio)-N-(3,4,5-trifluorophenyl)benzamide] | < 10 | 0.09
2 | O=C(Nc1ccc(F)c(Cl)c1)c1ccc(F)c(SC2CCC(O)CC2)c1 (mixture of isomers) [Compound 24, (cis/trans)-N-(3-Chloro-4-fluorophenyl)-4-fluoro-3-((4-hydroxycyclohexyl)thio)benzamide] | < 10 | 0.042
3 | O=C(Nc1cc(F)c(F)c(F)c1)c1ccc(F)c(SC2CCC(C(=O)O)CC2)c1 (mixture of isomers) [Compound 62, (cis/trans)-4-((2-Fluoro-5-((3,4,5-trifluorophenyl)carbamoyl)phenyl)thio)cyclohexanecarboxylic acid] | < 10 | 0.71
4 | O=C(Nc1ccc(F)c(F)c1)c1ccc(F)c(SC2CCC(C(=O)O)CC2)c1 (mixture of isomers) [Compound 63, (cis/trans)-4-((S-((3,4-Difluorophenyl)carbamoyl)-2-fluorophenyl)thio)cyclohexanecarboxylic acid] | < 10 | 1.6
5 | O=C(Nc1cc(F)c(F)c(F)c1)c1ccc(F)c(SC2CC3C(C2)C3C(=O)O)c1 (mixture of isomers) [Compound 98, (cis/trans)-3-((2-fluoro-5-((3,4,5-trifluorophenyl)carbamoyl)phenyl)thio)bicyclo[3.1.0]hexane-6-carboxylic acid] | < 10 | 1.3
6 | CS(=O)(=O)NC(=O)C1C2CC(Sc3cc(C(=O)Nc4cc(F)c(F)c(F)c4)ccc3F)CC21 (mixture of isomers) [Compound 99, (cis/trans)-3-((2-Fluoro-5-((3,4,5-trifluorophenyl)carbamoyl)phenyl)thio)-N-(methylsulfonyl)bicyclo[3.1.0]hexane-6-carboxamide] | < 10 | 4
7 | CC(O)CCSc1cc(C(=O)Nc2cc(F)c(F)c(F)c2)ccc1F (racemic) [Compound 18, (±)-4-Fluoro-3-((3-hydroxybutyl)thio)-N-(3,4,5-trifluorophenyl)benzamide] | < 10 | 0.57
8 | O=C1CCCCC(Sc2cccc(C(=O)Nc3ccc(F)c(Cl)c3)c2)C1 (racemic) [Compound 38, (±)-N-(3-Chloro-4-fluorophenyl)-3-((3-oxocycloheptyl)thio)benzamide] |  | 1.27
9 | O=C(Nc1ccc(F)c(Cl)c1)c1cccc(S[C@H]2CCCC[C@@H](O)C2)c1 (racemic) [Compound 39A, (±)-N-(3-Chloro-4-fluorophenyl)-3-(((1S,3R)-3-hydroxycycloheptyl)thio)benzamide] |  | 1.29
10 | O=C(Nc1ccc(F)c(Cl)c1)c1cccc(S[C@@H]2CCCC[C@@H](O)C2)c1 (racemic) [Compound 39B, (±)-N-(3-Chloro-4-fluorophenyl)-3-(((1R,3R)-3-hydroxycycloheptyl)thio)benzamide] |  | 1.29
11 | O=C(Nc1ccc(F)c(Cl)c1)c1ccnc(NS(=O)(=O)C2CCC(O)C2)c1 (racemic) [Compound 186, (±)-N-(3-Chloro-4-fluorophenyl)-2-(3-hydroxycyclopentanesulfonamido)isonicotinamide] | < 10 | 2.7
12 | O=C(Nc1cc(F)c(F)c(F)c1)c1ccc(F)c(SC2CCCCC2)c1 [Compound 2, 3-(Cyclohexylthio)-4-fluoro-N-(3,4,5-trifluorophenyl)benzamide] | < 10 | 0.138
13 | O=C(Nc1cc(F)c(F)c(F)c1)c1ccc(F)c(SC2CCOCC2)c1 [Compound 4, 4-Fluoro-3-((tetrahydro-2H-pyran-4-yl)thio)-N-(3,4,5-trifluorophenyl)benzamide] | < 10 | 0.22
14 | O=C(Nc1ccc(F)c(Cl)c1)c1cccc(SCCCO)c1 [Compound 40, N-(3-Chloro-4-fluorophenyl)-3-((3-hydroxypropyl)thio)benzamide] |  | 0.76
15 | O=C(Nc1ccc(F)c(Cl)c1)c1cc(NS(=O)(=O)C2CC2)ccn1 [Compound 126, N-(3-Chloro-4-fluorophenyl)-4-(cyclopropanesulfonamido)picolinamide] |  | 1
16 | O=C(Nc1ccc(F)c(Cl)c1)c1ccnc(NS(=O)(=O)c2cccs2)c1 [Compound 141, N-(3-Chloro-4-nuorophenyl)-2-(thiophene-2-sulfonamido)isonicotinamide] | < 10 | 
17 | O=C(Nc1ccc(F)c(Cl)c1)c1cc(NS(=O)(=O)C2CC2)ncc1F [Compound 144, N-(3-Chloro-4-fluorophenyl)-2-(cyclopropanesulfonamido)-5-fluoroisonicotinamide] | < 10 | 

Row | SMILES | EC50 [1] [µM] | EC50 [2] [µM]
18 | O=C(Nc1ccc(F)c(Cl)c1)c1cc(NS(=O)(=O)C2CC2)ncc1Cl [Compound 149, 5-Chloro-N-(3-chloro-4-fluorophenyl)-2-(cyclopropanesulfonamido)isonicotinamide] | < 10 | 
19 | O=C(Nc1ccc(F)c(Cl)c1)c1ccnc(NS(=O)(=O)CC2CCCC2)c1 [Compound 150, N-(3-Chloro-4-fluorophenyl)-2-(cyclopentylmethylsulfonamido)isonicotinamide] | < 10 | 
20 | Cc1ccc(CS(=O)(=O)Nc2cc(C(=O)Nc3ccc(F)c(Cl)c3)ccn2)cc1 [Compound 152, N-(3-Chloro-4-fluorophenyl)-2-(p-tolylmethylsulfonamido)isonicotinamide] | < 10 | 
21 | CC(C)(C)S(=O)(=O)Nc1cc(C(=O)Nc2ccc(F)c(Cl)c2)ccn1 [Compound 154, N-(3-Chloro-4-fluorophenyl)-2-(1,1-dimethylethylsulfonamido)isonicotinamide] | < 10 | 
22 | O=C(Nc1ccc(F)c(Cl)c1)c1ccnc(NS(=O)(=O)CC2(O)CCC2)c1 [Compound 155, N-(3-Chloro-4-fluorophenyl)-2-((1-hydroxycyclobutyl)methylsulfonamido) isonicotinamide] | < 10 | 
23 | CC(C)(O)CS(=O)(=O)Nc1cc(C(=O)Nc2ccc(F)c(Cl)c2)ccn1 [Compound 156, N-(3-Chloro-4-fluorophenyl)-2-(2-hydroxy-2-methylpropylsulfonamido) isonicotinamide] | < 10 | 
24 | CC(C)S(=O)(=O)Nc1cc(C(=O)Nc2ccc(F)c(Cl)c2)ccn1 [Compound 163, N-(3-Chloro-4-fluorophenyl)-2-(1-methylethylsulfonamido)isonicotinamide] | < 10 | 
25 | CC(C)(C)CS(=O)(=O)Nc1cc(C(=O)Nc2ccc(F)c(Cl)c2)ccn1 [Compound 164, N-(3-Chloro-4-fluorophenyl)-2-(2,2-dimethylpropylsulfonamido)isonicotinamide] | < 10 | 
26 | CC(C)S(=O)(=O)Nc1cc(C(=O)Nc2ccc(F)c(F)c2)ccn1 [Compound 165, N-(3,4-Difluorophenyl)-2-(1-methylethylsulfonamido)isonicotinamide] | < 10 | 
27 | COc1ccc(CCS(=O)(=O)Nc2cc(C(=O)Nc3ccc(F)c(Cl)c3)ccn2)cc1 [Compound 173, N-(3-Chloro-4-fluorophenyl)-2-(2-(4-methoxyphenyl)ethylsulfonamido)isonicotinamide] | < 10 | 
28 | Cc1cc(NC(=O)c2ccc(F)c(NS(=O)(=O)c3ccn(C)n3)c2)ccc1F [Compound 197, 4-fluoro-N-(4-fluoro-3-methylphenyl)-3-(1-methyl-1H-pyrazole-3-sulfonamido)benzamide] | < 10 | 
29 | COCCS(=O)(=O)Nc1cccc(C(=O)Nc2ccc(F)c(Cl)c2)c1 [Compound 198, N-(3-chloro-4-fluorophenyl)-3-(2-methoxyethylsulfonamido)benzamide] | < 10 | 
30 | O=C(Nc1ccc(F)c(Cl)c1)c1cccc(NS(=O)(=O)c2cccs2)c1 [Compound 199, N-(3-chloro-4-fluorophenyl)-3-(thiophene-2-sulfonamido)benzamide] | < 10 | 
31 | O=C(Nc1ccc(F)c(Cl)c1)c1cccc(NS(=O)(=O)c2cn[nH]c2)c1 [Compound 200, N-(3-chloro-4-fluorophenyl)-3-(1H-pyrazole-4-sulfonamido)benzamide] | < 10 | 
32 | Cc1n[nH]c(C)c1S(=O)(=O)Nc1cccc(C(=O)Nc2ccc(F)c(Cl)c2)c1 [Compound 201, N-(3-chloro-4-fluorophenyl)-3-(3,5-dimethyl-1H-pyrazole-4-sulfonamido)benzamide] | < 10 | 
33 | O=C(Nc1ccc(F)c(Cl)c1)c1cccc(NS(=O)(=O)N2CCC(OCc3ccccc3)CC2)c1 [Compound 207, 3-(4-(benzyloxy)piperidine-1-sulfonamido)-N-(3-chloro-4-fluorophenyl)benzamide] | < 10 | 
